In patent US20250170090A1, “METHOD FOR PREVENTING OR TREATING DISEASE OR DISORDER ASSOCIATED WITH ANTINEOPLASTIC AGENT” (ONQUALITY PHARMACEUTICALS CHINA LTD., priority 2022, published 2025):

Legend:
[1] = test system: hand-foot syndrome caused by macromolecular anti-tumor agents; experiment: Prevention of hand-foot syndrome caused by macromolecular protein inhibitors in rats (Table 3); type: in vivo
[2] = test system: hand-foot syndrome caused by anti-tumor agents; experiment: Treatment of established hand-foot syndrome caused by anti-tumor agents in rats (Table 4); type: in vivo
Experimental: After the rats (about 200 g) were fed and adapted for one week, the rats were divided into groups of 10 rats for gavage administration experiment. The anti-tumor agent was dissolved in a mixed solution of Cremophor EL:ethanol=1:1, and diluted with PBS to the required concentration (diluted about 3 times with PBS solution) before gavage. […] Specific experimental procedures followed those outlined in the prevention experiment. […] Table 4 lists the animal experiments using various anti-tumor agents and NO-NSAID ointment, as well as the corresponding experimental results (where the value in the control rate column=the incidence rate of hand-foot syndrome in the blank group−the incidence rate of hand-foot syndrome in the treatment group).

[3] = test system: chemotherapy-induced hand-foot syndrome; experiment: Prevention of chemotherapy-induced hand-foot syndrome in rat models (Table 5); type: in vivo, SD rats
Experimental: Rat animal model was constructed. After several days, the rats develop hand-foot syndrome in their paws. After one week of acclimatization (about 200 g), the SD rats are divided into groups of 10 rats each, followed by gavage administration experiment. The chemotherapy drugs were dissolved, and each rat was given a gavage dose of 1 mL/100 g. After gavage, the rats were fixed with a fixed cylinder. NO-NSAID ointment was applied to the paws of the rats in the medication group, and blank ointment was applied to the paws of the rats in the blank group (as blank control). […] Table 5 lists the animal experimental combinations of chemotherapy drugs and NO-NSAID ointment, as well as the corresponding experimental results (where the value in the control rate column=the incidence rate of hand-foot syndrome in the blank group−the incidence rate of hand-foot syndrome in the treatment group).

[4] = test system: human immortalized keratinocytes (HaCaT); experiment: CCK-8 cell viability: alleviation of proliferative toxicity of anti-tumor agents on HaCaT (Table 8-1); type: cell-based; conditions: NO-NSAID 100 μM, percentage increase in viable cells vs anti-tumor agent alone
Experimental: (§1) Experiments were conducted using various epithelial cells: Examples 47-51 used human immortalized keratinocytes (HaCaT) with corresponding results in Table 8-1; Examples 52-56 used human oral keratinocytes (HOK) with results in Table 8-2; Examples 57-61 used gastric epithelial cells (GES-1) with results in Table 8-3; Examples 62-66 used human intestinal epithelial cells (FHs 74 Int) with results in Table 8-4.
(§2) The cultured cells were digested the suspended, counted, and seed into a 96-well plate with 5,000-10,000 cells per well. The wells are divided into the following groups: blank control group, anti-tumor agent group, anti-tumor agent+NO-NSAID group, anti-tumor agent solvent group, NO-NSAID solvent control group. Wherein each well of each group contained a basic medium, and the final liquid volume contained in each well was about 100 μL. The grouping situation was as follows: • 1) Blank control group: no solution was added except normally replacing the medium; • 2) Anti-tumor agent group: added the anti-tumor agent solution (the final concentration was shown in Table 8-1 to Table 8-4, the solvent of the anti-tumor agent solution was DMSO); • 3) Anti-tumor agent+NO-NSAID group: added the anti-tumor agent solution and the NO-NSAID solution (the final concentrations of anti-tumor agent and NO-NSAID were shown in Table 8-1 to Table 8-4, and according to the solubility of NO-NSAID, the solvent of NO-NSAID solution was selected as ethanol or sterile water, and minor volume differences in each group were adjusted by added the corresponding solvent); • 4) Anti-tumor agent solvent group: an equal volume of DMSO as contained in the corresponding anti-tumor agent solution in Group 2) was added; • 5) NO-NSAID control group: the same volume and type of solvent (for example, ethanol or sterile water) corresponding to the NO-NSAID contained in group 3) was added.
(§3) The anti-tumor agent solvent group was not involved in data processing and was only used as a reference for evaluating experimental system error. The NO-NSAID solvent control group was used for data correction to eliminate the influence of the solvent on the results.
(§4) After culturing for 24-48 hours, the Cell Counting Kit-8 (CCK-8) detection kit (C0037, Shanghai Beyotime Biotechnology Co., Ltd., Beyotime Biotechnology) was used to determine the cell viability. This allows for the calculation of the proliferative toxicity of anti-tumor agent on cell and the mitigating effect of NO-NSAID on proliferative toxicity. The results were statistically analyzed and plotted using GraphPad Prism 6.0 software and t test.

[5] = test system: human oral keratinocytes (HOK); experiment: CCK-8 cell viability: alleviation of proliferative toxicity of anti-tumor agents on HOK (Table 8-2); type: cell-based; conditions: NO-NSAID 100 μM
Experimental: as §1, §2, §3, §4

[6] = test system: gastric epithelial cells (GES-1); experiment: CCK-8 cell viability: alleviation of proliferative toxicity of anti-tumor agents on GES-1 (Table 8-3); type: cell-based, human; conditions: NO-NSAID 100 μM
Experimental: as §1, §2, §3, §4

[7] = test system: human intestinal epithelial cells (FHs 74 Int); experiment: CCK-8 cell viability: alleviation of proliferative toxicity of anti-tumor agents on FHs 74 Int (Table 8-4); type: cell-based; conditions: NO-NSAID 100 μM
Experimental: as §1, §2, §3, §4

CC(=O)Oc1ccccc1C(=O)Oc1cccc(CO[N+](=O)[O-])c1 [Compound A2]
Control rate ([1]; Bevacizumab, 5-FU combination, tail vein injection once a week, ointment 1% wt, Days 18): 33.33%
Control rate ([1]; Bevacizumab, 5-FU combination, tail vein injection once a week, ointment 5% wt, Days 18): 50.00%
Control rate ([1]; Ramucirumab combined with paclitaxel, intraperitoneal injection once a week, ointment 1% wt, Days 23): 33.33%
Control rate ([1]; Ramucirumab combined with paclitaxel, intraperitoneal injection once a week, ointment 5% wt, Days 23): 66.67%
Response rate ([2]; Apatinib 105 mg/kg once every two days, ointment 3% wt, Days 7): 33.33%
Response rate ([2]; Cabozantinib 50 mg/kg once every two days, ointment 1% wt, Days 13): 14.29%
Response rate ([2]; Erdafitinib 45 mg/kg once every two days, ointment 3% wt, Days 13): 28.57%
Response rate ([2]; Fruquintinib 40 mg/kg once every two days, ointment 3% wt, Days 8): 50.00%
Response rate ([2]; Lenvatinib 65 mg/kg once a day, ointment 3% wt, Days 9): 33.33%
Response rate ([2]; Regorafenib 90 mg/kg once every two days, ointment 1% wt, Days 7): 33.33%
Response rate ([2]; Sorafenib 80 mg/kg once every two days, ointment 2.00% wt, Days 5): 20.00%
Response rate ([2]; Sunitinib 120 mg/kg once every two days, ointment 3% wt, Days 7): 33.33%
Control rate ([3]; Acelarin 130 mg/kg twice a week, ointment 1% wt, Days 30): 28.57%
Control rate ([3]; Capecitabine 4000 mg/kg once a day, ointment 2% wt, Days 40): 22.22%
Control rate ([3]; Capecitabine 4000 mg/kg once a day, ointment 5% wt, Days 40): 28.57%
Control rate ([3]; Capecitabine 4000 mg/kg once a day, ointment 10% wt, Days 40): 33.33%
Control rate ([3]; Cytarabine 120 mg/kg twice a day, ointment 2% wt, Days 30): 14.29%
Control rate ([3]; Cytarabine 120 mg/kg twice a day, ointment 5% wt, Days 30): 42.86%
Response rate % (average) ([4]; Afatinib (10 μM)): 20%
Response rate % (average) ([4]; Cabozantinib (5 μM)): 36%
Response rate % (average) ([4]; Dabrafenib (10 μM)): 21%
Response rate % (average) ([4]; Everolimus (5 μM)): 7%
Response rate % (average) ([4]; Infigratinib (15 μM)): 16%
Response rate % (average) ([4]; Lapatinib (5 μM)): 18%
Response rate % (average) ([4]; Lenvatinib (10 μM)): 1%
Response rate % (average) ([4]; Olmutinib (10 μM)): 34%
Response rate % (average) ([4]; Regorafenib (5 μM)): 26%
Response rate % (average) ([4]; Selumetinib (5 μM)): 18%
Response rate % (average) ([4]; Sorafenib (5 μM)): 33%
Response rate % (average) ([4]; Sunitinib (5 μM)): 31%
Response rate % (average) ([5]; Afatinib (10 μM)): 24%
Response rate % (average) ([5]; Cabozantinib (5 μM)): 22%
Response rate % (average) ([5]; Dabrafenib (10 μM)): 22%
Response rate % (average) ([5]; Everolimus (5 μM)): 8%
Response rate % (average) ([5]; Infigratinib (15 μM)): 21%
Response rate % (average) ([5]; Lapatinib (5 μM)): −8%
Response rate % (average) ([5]; Lenvatinib (10 μM)): 19%
Response rate % (average) ([5]; Olmutinib (10 μM)): 32%
Response rate % (average) ([5]; Regorafenib (5 μM)): 3%
Response rate % (average) ([5]; Selumetinib (5 μM)): 13%
Response rate % (average) ([5]; Sorafenib (5 μM)): 31%
Response rate % (average) ([5]; Sunitinib (5 μM)): 27%
Response rate % (average) ([6]; Afatinib (10 μM)): 3%
Response rate % (average) ([6]; Cabozantinib (5 μM)): 27%
Response rate % (average) ([6]; Dabrafenib (10 μM)): 25%
Response rate % (average) ([6]; Everolimus (5 μM)): 31%
Response rate % (average) ([6]; Infigratinib (15 μM)): 39%
Response rate % (average) ([6]; Lapatinib (5 μM)): 16%
Response rate % (average) ([6]; Lenvatinib (10 μM)): 23%
Response rate % (average) ([6]; Olmutinib (10 μM)): 30%
Response rate % (average) ([6]; Regorafenib (5 μM)): 18%
Response rate % (average) ([6]; Selumetinib (5 μM)): 17%
Response rate % (average) ([6]; Sorafenib (5 μM)): 24%
Response rate % (average) ([6]; Sunitinib (5 μM)): 18%
Response rate % (average) ([7]; Afatinib (10 μM)): 22%
Response rate % (average) ([7]; Cabozantinib (5 μM)): 26%
Response rate % (average) ([7]; Dabrafenib (10 μM)): 13%
Response rate % (average) ([7]; Everolimus (5 μM)): 27%
Response rate % (average) ([7]; Infigratinib (15 μM)): 20%
Response rate % (average) ([7]; Lapatinib (5 μM)): 20%
Response rate % (average) ([7]; Lenvatinib (10 μM)): 26%
Response rate % (average) ([7]; Olmutinib (10 μM)): 25%
Response rate % (average) ([7]; Regorafenib (5 μM)): 21%
Response rate % (average) ([7]; Selumetinib (5 μM)): 27%
Response rate % (average) ([7]; Sorafenib (5 μM)): 26%
Response rate % (average) ([7]; Sunitinib (5 μM)): 36%
